Experimental data reported in paper PMC10139140, “Synthesis of Novel 2-(Cyclopentylamino)thiazol-4(5H)-one Derivatives with Potential Anticancer, Antioxidant, and 11β-HSD Inhibitory Activities” (International Journal of Molecular Sciences, 2023).

What was measured:
[1] = test system: glioma (U-118 MG); assay: MTS metabolic activity assay, U-118 MG cells; type: cell-based; conditions: 72 h; for viability at 10 µM / viability at 20 µM / viability at 50 µM / viability at 100 µM / viability at 200 µM / viability at 300 µM / viability at 500 µM: Homo sapiens, U-118-MG, U118-MG, read-out: Cell metabolic activity (MTS), % of untreated control
Protocol: (§1) The BJ (CRL-2522), Caco-2 (HTB-37), PANC-1 (CRL-1469), U-118 MG (HTB-15), SK-MEL-30 (ACC 151), and MDA-MB-231 (HTB-26) cell lines were purchased from ATCC (Manassas, VA, USA) or DSMZ (Braunschweig, GERMANY). Cells were cultured in accordance with manufacturers' recommendations in a DMEM, MEM, or RPMI-1640 (Sigma, Saint Louis, MO, USA; Gibco, Waltham, MA, USA), supplemented with 10% FBS, except for Caco-2 (20%) (Thermo Fisher Scientific, Waltham, MA, USA) and 1% antibiotic mix solution (penicillin, streptomycin; Thermo Fisher Scientific, Waltham, MA, USA) in a humidified atmosphere with 5% CO2 at 37 °C. All cell lines were cultured in T75 cell culture flasks or cell culture dishes to reach 80–90% confluency and seeded at a standard density of 5 × 10^3 cells/0.32 cm^2, except for BJ cells at 2 × 10^3 cells/0.32 cm^2.
(§2) The MTS ((MTS: 3-(4,5-dimethylthiazol-2-yl)-5-(3-carboxymethoxyphenyl)-2-(4-sulfophenyl)-2H-tetrazolium)) assay was performed following previously reported method. Briefly, cells were seeded at a standard density into 96-well flat-bottom plates and incubated for 24 h, followed by the treatment. The various concentrations of compounds were prepared and treated for the next 72 h. MTS solution was added for 3h and incubated at standard conditions, protected from light. Finally, the absorbance was read at […] and 620 nm wavelengths using a Synergy H1 microplate reader (BioTek, Santa Clara, CA, USA). The results are presented as %, while untreated control cells were considered 100%.

[2] = test system: skin melanoma (SK-MEL-30); assay: MTS metabolic activity assay, SK-MEL-30 cells; type: cell-based; conditions: Homo sapiens, 72 h, read-out: Cell metabolic activity (MTS), % of untreated control; for viability at 10 µM: SK-MEL-30, 10 µM; for viability at 20 µM: SK-MEL-30, 20 µM; for viability at 50 µM: SK-MEL-30, 50 µM; for viability at 100 µM: SK-MEL-30, 100 µM; for viability at 200 µM: SK-MEL-30, 200 µM; for viability at 300 µM: SK-MEL-30, 300 µM; for viability at 500 µM: SK-MEL-30, 500 µM
Protocol: as §1, §2

[3] = test system: human colon carcinoma (Caco-2); assay: MTS metabolic activity assay, Caco-2 cells; type: cell-based; conditions: 72 h; for viability at 10 µM / viability at 20 µM / viability at 50 µM / viability at 100 µM / viability at 200 µM / viability at 300 µM / viability at 500 µM: Homo sapiens, read-out: Cell metabolic activity (MTS), % of untreated control; for viability at 10 µM: Caco-2, 10 µM; for viability at 20 µM: Caco-2, 20 µM; for viability at 50 µM: Caco-2, 50 µM; for viability at 100 µM: Caco-2, 100 µM; for viability at 200 µM: Caco-2, 200 µM; for viability at 300 µM: Caco-2, 300 µM; for viability at 500 µM: Caco-2, 500 µM
Protocol: as §1, §2

[4] = target: T1, 11β-HSD1 (Homo sapiens, UniProt P28845); assay: Inhibition of 11β-HSD1 (cortisone to cortisol, human liver microsomes, cortisol ELISA); type: biochemical
T1 construct: Human liver microsomes were used as a source of 11β-HSD1 enzyme; tissue XenoTech Lot No. 1410013; host or cells: pooled human liver microsomes, mixed gender
T1 sequence (P28845 whole entry): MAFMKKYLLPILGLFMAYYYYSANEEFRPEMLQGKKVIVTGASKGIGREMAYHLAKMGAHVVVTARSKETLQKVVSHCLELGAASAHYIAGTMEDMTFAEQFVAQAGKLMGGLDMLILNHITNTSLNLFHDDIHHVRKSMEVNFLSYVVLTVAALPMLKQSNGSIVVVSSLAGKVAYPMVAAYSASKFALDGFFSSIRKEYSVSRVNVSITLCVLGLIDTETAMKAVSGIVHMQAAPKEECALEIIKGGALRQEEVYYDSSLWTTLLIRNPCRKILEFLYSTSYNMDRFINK
Procedure, shortened: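 Human liver microsomal conversion of cortisone to cortisol, incubated 2.5 h at 37 °C and stopped with 18β-glycyrrhetinic acid. Cortisol was quantified by ELISA against inhibitor-free controls.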

[5] = test system: human pancreatic carcinoma (PANC-1); assay: MTS metabolic activity assay, PANC-1 cells; type: cell-based; conditions: for viability at 10 µM / viability at 20 µM / viability at 50 µM / viability at 100 µM / viability at 200 µM / viability at 300 µM / viability at 500 µM: Homo sapiens, 72 h, read-out: Cell metabolic activity (MTS), % of untreated control; for viability at 10 µM: PANC-1, 10 µM; for viability at 20 µM: PANC-1, 20 µM; for viability at 50 µM: PANC-1, 50 µM; for viability at 100 µM: PANC-1, 100 µM; for viability at 200 µM: PANC-1, 200 µM; for viability at 300 µM: PANC-1, 300 µM; for viability at 500 µM: PANC-1, 500 µM
Protocol: as §1, §2

[6] = target: T2, 11β-HSD2 (Homo sapiens, UniProt P80365); assay: Inhibition of 11β-HSD2 (cortisol to cortisone, human microsomes, cortisol ELISA); type: biochemical; conditions: 2.5 h, 37 °C
T2 construct: Human liver microsomes were used as a source of 11β-HSD2 enzyme; tissue XenoTech Lot No. 1710160; host or cells: human kidney microsomes, mixed gender (method text says human liver microsomes)
T2 sequence (P80365 1-405): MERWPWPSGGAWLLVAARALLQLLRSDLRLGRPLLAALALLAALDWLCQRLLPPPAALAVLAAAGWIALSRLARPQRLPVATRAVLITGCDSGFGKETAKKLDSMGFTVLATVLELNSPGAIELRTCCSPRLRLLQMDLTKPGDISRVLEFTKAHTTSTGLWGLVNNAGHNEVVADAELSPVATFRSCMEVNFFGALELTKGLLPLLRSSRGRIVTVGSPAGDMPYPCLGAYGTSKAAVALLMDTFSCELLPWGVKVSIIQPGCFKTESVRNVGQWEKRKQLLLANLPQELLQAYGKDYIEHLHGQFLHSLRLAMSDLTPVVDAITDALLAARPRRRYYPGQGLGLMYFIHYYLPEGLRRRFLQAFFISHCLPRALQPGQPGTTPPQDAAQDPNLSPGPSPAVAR
Protocol: The resulting solution with a final volume of 100 µL was incubated for 2.5 h at 37 °C. […] The level of unreacted cortisol was measured by a commercially available ELISA kit.

[7] = test system: BJ cells; assay: MTS metabolic activity assay, BJ cells; type: cell-based; conditions: Homo sapiens, 72 h, read-out: Cell metabolic activity (MTS), % of untreated control
Protocol: as §1, §2

[8] = test system: human breast carcinoma (MDA-MB-231); assay: MTS metabolic activity assay, MDA-MB-231 cells; type: cell-based; conditions: 72 h; for viability at 10 µM / viability at 20 µM / viability at 50 µM / viability at 100 µM / viability at 200 µM / viability at 300 µM / viability at 500 µM: Homo sapiens, read-out: Cell metabolic activity (MTS), % of untreated control; for viability at 10 µM: MDA-MB-231, 10 µM; for viability at 20 µM: MDA-MB-231, 20 µM; for viability at 50 µM: MDA-MB-231, 50 µM; for viability at 100 µM: MDA-MB-231, 100 µM; for viability at 200 µM: MDA-MB-231, 200 µM; for viability at 300 µM: MDA-MB-231, 300 µM; for viability at 500 µM: MDA-MB-231, 500 µM
Protocol: as §1, §2

Structure (SMILES): CC1(C)SC(NC2CCCC2)=NC1=O [Compound 3e, 2-(cyclopentylamino)-5,5-dimethylthiazol-4(5H)-one]
- viability at 10 µM [1]: 110%
- viability at 20 µM [1]: 110%
- viability at 50 µM [1]: 116%
- viability at 100 µM [1]: 111%
- viability at 200 µM [1]: 112%
- viability at 300 µM [1]: 109%
- viability at 500 µM [1]: 106%
- viability at 10 µM [2]: 102%
- viability at 20 µM [2]: 100%
- viability at 50 µM [2]: 103%
- viability at 100 µM [2]: 106%
- viability at 200 µM [2]: 106%
- viability at 300 µM [2]: 104%
- viability at 500 µM [2]: 104%
- viability at 10 µM [3]: 99.9%
- viability at 20 µM [3]: 86.5%
- viability at 50 µM [3]: 86.7%
- viability at 100 µM [3]: 83.4%
- viability at 200 µM [3]: 80.2%
- viability at 300 µM [3]: 75.6%
- viability at 500 µM [3]: 64.1%
- IC50 [4]: 4.4 ± 0.15 µM
- inhibition at 10 µM ([4]; 10 µM, 2.5 h, 37 °C): 53.2 ± 5.22%
- viability at 10 µM [5]: 110%
- viability at 20 µM [5]: 101%
- viability at 50 µM [5]: 110%
- viability at 100 µM [5]: 112%
- viability at 200 µM [5]: 120%
- viability at 300 µM [5]: 122%
- viability at 500 µM [5]: 127%
- inhibition at 10 µM [6]: 36.6 ± 1.5%
- viability at 10 µM [7]: 107%
- viability at 20 µM [7]: 109%
- viability at 50 µM [7]: 112%
- viability at 100 µM [7]: 114%
- viability at 200 µM [7]: 117%
- viability at 300 µM [7]: 119%
- viability at 500 µM [7]: 108%
- viability at 10 µM [8]: 96.3%
- viability at 20 µM [8]: 100%
- viability at 50 µM [8]: 103%
- viability at 100 µM [8]: 95.7%
- viability at 200 µM [8]: 93.7%
- viability at 300 µM [8]: 90.6%
- viability at 500 µM [8]: 85.2%

Structure (SMILES): O=C1N=C(NC2CCCC2)SC12CCCCC2 [Compound 3h, 2-(cyclopentylamino)-1-thia-3-azaspiro[4.5]dec-2-en-4-one]
- viability at 10 µM [1]: 111%
- viability at 20 µM [1]: 111%
- viability at 50 µM [1]: 116%
- viability at 100 µM [1]: 116%
- viability at 200 µM [1]: 121%
- viability at 300 µM [1]: 121%
- viability at 500 µM [1]: 99.9%
- highest increase in proliferation (cell metabolic activity) ([1]; U-118 MG, range given for the named substances together): 115 to 144%
- viability at 10 µM [2]: 96.1%
- viability at 20 µM [2]: 100%
- viability at 50 µM [2]: 102%
- viability at 100 µM [2]: 105%
- viability at 200 µM [2]: 109%
- viability at 300 µM [2]: 106%
- viability at 500 µM [2]: 80.8%
- cell viability, decreases to ([3]; Caco-2, higher concentrations, range given for the most effective substances together): 20–65%
- viability at 10 µM [3]: 96.3%
- viability at 20 µM [3]: 94.2%
- viability at 50 µM [3]: 99.9%
- viability at 100 µM [3]: 96.2%
- viability at 200 µM [3]: 95.6%
- viability at 300 µM [3]: 82.6%
- viability at 500 µM [3]: 65.5%
- IC50 [4]: 0.07 ± 0.005 µM
- % of 11β-HSD1 Inhibition 10 μM ([4]; 10 µM, 2.5 h, 37 °C): 90.49 ± 1.31%
- inhibition at 10 µM ([4]; 10 µM, 2.5 h, 37 °C): 90%
- viability at 10 µM [5]: 102%
- viability at 20 µM [5]: 96%
- viability at 50 µM [5]: 105%
- viability at 100 µM [5]: 109%
- viability at 200 µM [5]: 117%
- viability at 300 µM [5]: 127%
- viability at 500 µM [5]: 98.4%
- highest increase in proliferation (cell metabolic activity) ([5]; PANC-1, 72 h, range given for the named substances together): 115 to 144%
- inhibition at 10 µM [6]: < 43%
- viability at 10 µM [7]: 108%
- viability at 20 µM [7]: 106%
- viability at 50 µM [7]: 111%
- viability at 100 µM [7]: 118%
- viability at 200 µM [7]: 122%
- viability at 300 µM [7]: 115%
- viability at 500 µM [7]: 79%
- viability at 10 µM [8]: 91.6%
- viability at 20 µM [8]: 92.7%
- viability at 50 µM [8]: 92.1%
- viability at 100 µM [8]: 93.5%
- viability at 200 µM [8]: 77.1%
- viability at 300 µM [8]: 64.6%
- viability at 500 µM [8]: 45.6%
- cell viability, decreases to ([8]; MDA-MB-231, higher concentrations, range given for the most effective substances together): 20–65%
